# Test results reported in patent US10851092B2, “Pyridine compound” (Daiichi Sankyo Company, Limited, priority 2016, dated 2020).
# pIC50: −log10 of the molar value. Like-named read-outs stand apart in the source and are kept apart here.
# How the values were obtained:
# KDR kinase = KDR kinase (Homo sapiens (Human), UniProt P35968); test: Evaluation of KDR kinase inhibiting activity (cell system), HUVEC, AlphaLISA; assay type: cell-based
# Description: HUVEC cells were seeded on a plate at a cell density of 1500 cells per well, and then cultured overnight. The test compound (10 uM, 2.5 uM, 625 nM, 156 nM, […], 10 nM, 2.5 nM, or 0.6 nM) was added to each well, followed by culturing the obtained mixture for 2 hours. Thereafter, VEGF165 (Peprotech, #100-20) was added to the culture at a final concentration of 50 ng/ml, and the obtained mixture was then reacted at 37° C. for 5 minutes. Thereafter, the resulting cells were lysed with 50 ul of Lysis buffer included in AlphaLISA SureFire Ultra (Perkin Elmer, # ALSU-PVGFR-A500), and Acceptor beads and Donor beads were then added to 10 ul of the cell lysate according to the instruction manual included with the aforementioned kit. The mixture thus obtained was reacted at room temperature overnight, and thereafter, a KDR kinase inhibiting activity rate was measured using Envision (Perkin Elmer).
# The value for a well to which only the Lysis buffer had been added was subtracted as a background from all of the values. Thereafter, the value for a well to which […] had been added and the test compound had not been added was defined as a KDR kinase activity of 100%, and the obtained value was corrected.
# [1] = system: non-small cell lung cancer cell line LC-2/ad having a CCDC6-RET fusion gene; test: Cell growth inhibitory activity, non-small cell lung cancer cell line LC-2/ad; assay type: cell-based; conditions: Homo sapiens, 216 h; LC-2/ad cells, 9 days, CellTiter-Glo
# Description: The cell growth inhibitory activity of the test compound on the non-small cell lung cancer cell line LC-2/ad having a CCDC6-RET fusion gene (RIKEN, J Thorac Oncol. 2012 December, 7(12), 1872-6) was measured.
# LC-2/ad cells were seeded on a 96-well plate at a cell density of 5,000 cells per well, and then cultured at 37° C. in the presence of 5% CO2 overnight in a medium prepared by mixing RPMI-1640 containing 15% FBS and 25 mM HEPES with Ham's F12 Mixture at a mixing ratio of 1:1. Thereafter, the test compound was diluted, and then added to the 96-well plate. As a negative control, dimethyl sulfoxide (hereinafter referred to as DMSO) was added. The obtained mixture was cultured at 37° C. in the presence of 5% CO2 for 9 days, and thereafter, a cell count measuring reagent CellTiter-Glo® Luminescent Cell Viability Assay (Promega, # G7571) was added to the culture, followed by stirring the mixture. Thereafter, using a luminescence measurement device Envision, the luminescence intensity was measured. The measurement value of a well to which only the medium had been added was define as a survival rate of 0%, and the measurement value of a well to which DMSO had been added was defined as a survival rate of 100%. The survival rate of the LC-2/ad cells in the presence of each concentration of the test compound was calculated.
# [2] = system: thyroid gland cancer cell line TT having RET activating mutation (C634W); test: Cell growth inhibitory activity, thyroid gland cancer cell line TT; assay type: cell-based; conditions: Homo sapiens, 216 h; TT cells, 9 days, CellTiter-Glo
# Description: The cell growth inhibitory activity of the test compound on the thyroid gland cancer cell line TT having RET activating mutation (C634W) (Biochemical and Biophysical Research Communications. 1995 Feb. 27 (207), 1022-1028) was measured.
# TT cells were seeded on a 96-well plate at a cell density of 5,000 cells per well, and were then cultured at 37° C. in the presence of 5% CO2 overnight in an F-12K nutrient mixture medium containing 10% FBS. Thereafter, the compound was diluted, and then added to the 96-well plate. As a negative control, dimethyl sulfoxide (hereinafter referred to as DMSO) was added. The obtained mixture was cultured at 37° C. in the presence of 5% CO2 for 9 days, and thereafter, a cell count measuring reagent CellTiter-Glo® Luminescent Cell Viability Assay was added to the culture, followed by stirring the mixture. Thereafter, using a luminescence measurement device Envision (Perkin Elmer), the luminescence intensity was measured. The measurement value of a well to which only the medium had been added was define as a survival rate of 0%, and the measurement value of a well to which DMSO had been added was defined as a survival rate of 100%. The survival rate of the TT cells in the presence of each concentration of the test compound was calculated.
# [3] = system: non-small cell lung cancer cell line LC-2/ad xenograft; test: Antitumor activity in xenograft model established with LC-2/ad; assay type: in vivo, NOG mice; conditions: oral
# Description: (§1) Cells of a non-small cell lung cancer cell line LC-2/ad (RIKEN, J Thorac Oncol. 2012 December, 7(12), 1872-6) suspended in DPBS (Gibco, #14190) were mixed with an equal amount of Corning Matrigel Basement Membrane Matrix (Corning, #354234), and the obtained mixture was then subcutaneously transplanted into NOG mice to form a tumor. (The NOG mice were acclimatized after they had been received from In Vivo Science Inc., and thereafter, the cells were transplanted into the mice when the mice were 9 week olds. As feedstuff, FR-2 (manufactured by Funabashi Farm Co., Ltd.) was used.) After the tumor had reached a size of 100 to 200 mm^3, the mice were randomized based on tumor diameter, and oral administration of the compound of Example 4 (hereinafter referred to as Compound A) was then initiated. As a solvent for dissolving Compound A, 1% hydroxypropyl methyl cellulose was used. […] Moreover, the tumor was collected (no administration was carried out on the Vehicle group) two hours and six hours after the final administration of Compound A, and the RET phosphorylation of the tyrosine at position 905 used as an indicator of RET kinase activity (pRET(Y905), Nature Medicine, 18, 375-377 (2012)) was then detected by the Western blotting method.
# [4] = biological target: RET phosphorylation of the tyrosine at position 905 (pRET(Y905)) (Homo sapiens (Human), UniProt P07949+Q16204); test: RET phosphorylation (Y905) in LC-2/ad xenograft tumors, Western blotting; assay type: in vivo, NOG mice; conditions: tumor collected two and six hours after final administration (FIG. 2)
# Description: as §1
# Chain of KDR kinase (P35968 20-1356): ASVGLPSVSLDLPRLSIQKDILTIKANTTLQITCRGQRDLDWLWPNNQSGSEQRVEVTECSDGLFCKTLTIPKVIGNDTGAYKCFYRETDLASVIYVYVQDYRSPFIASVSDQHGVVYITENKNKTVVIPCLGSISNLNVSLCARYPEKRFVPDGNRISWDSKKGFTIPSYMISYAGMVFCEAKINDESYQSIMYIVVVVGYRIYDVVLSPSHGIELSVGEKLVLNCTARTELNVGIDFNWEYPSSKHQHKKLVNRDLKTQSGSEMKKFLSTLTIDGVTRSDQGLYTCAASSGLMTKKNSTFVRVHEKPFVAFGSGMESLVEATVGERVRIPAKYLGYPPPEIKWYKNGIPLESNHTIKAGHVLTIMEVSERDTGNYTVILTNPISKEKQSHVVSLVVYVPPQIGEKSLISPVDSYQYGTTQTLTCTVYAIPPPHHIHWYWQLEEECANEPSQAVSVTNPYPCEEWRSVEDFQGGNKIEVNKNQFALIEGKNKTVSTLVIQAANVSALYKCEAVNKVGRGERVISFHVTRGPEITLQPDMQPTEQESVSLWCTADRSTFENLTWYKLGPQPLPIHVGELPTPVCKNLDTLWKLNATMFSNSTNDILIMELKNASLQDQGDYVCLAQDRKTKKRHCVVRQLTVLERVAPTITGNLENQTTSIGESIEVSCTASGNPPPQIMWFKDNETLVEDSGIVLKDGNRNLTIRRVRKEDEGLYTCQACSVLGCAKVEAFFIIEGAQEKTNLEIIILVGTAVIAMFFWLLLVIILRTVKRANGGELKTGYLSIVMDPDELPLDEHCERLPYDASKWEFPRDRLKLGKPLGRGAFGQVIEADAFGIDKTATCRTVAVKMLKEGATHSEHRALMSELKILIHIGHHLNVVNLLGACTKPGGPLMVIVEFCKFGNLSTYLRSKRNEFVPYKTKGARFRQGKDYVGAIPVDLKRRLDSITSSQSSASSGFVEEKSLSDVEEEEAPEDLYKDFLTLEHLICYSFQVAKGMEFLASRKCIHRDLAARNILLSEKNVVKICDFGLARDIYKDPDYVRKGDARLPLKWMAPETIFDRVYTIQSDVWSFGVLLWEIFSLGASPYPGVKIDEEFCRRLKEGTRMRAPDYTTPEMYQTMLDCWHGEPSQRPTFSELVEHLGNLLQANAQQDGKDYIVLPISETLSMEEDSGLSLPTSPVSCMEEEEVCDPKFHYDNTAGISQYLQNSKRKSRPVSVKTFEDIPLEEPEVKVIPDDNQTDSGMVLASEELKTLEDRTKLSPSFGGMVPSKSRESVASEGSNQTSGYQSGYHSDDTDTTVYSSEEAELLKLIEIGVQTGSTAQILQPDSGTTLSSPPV
# Chain of RET phosphorylation of the tyrosine at position 905 (pRET(Y905)) (P07949 other isoform, or with tags, fused parts or gaps): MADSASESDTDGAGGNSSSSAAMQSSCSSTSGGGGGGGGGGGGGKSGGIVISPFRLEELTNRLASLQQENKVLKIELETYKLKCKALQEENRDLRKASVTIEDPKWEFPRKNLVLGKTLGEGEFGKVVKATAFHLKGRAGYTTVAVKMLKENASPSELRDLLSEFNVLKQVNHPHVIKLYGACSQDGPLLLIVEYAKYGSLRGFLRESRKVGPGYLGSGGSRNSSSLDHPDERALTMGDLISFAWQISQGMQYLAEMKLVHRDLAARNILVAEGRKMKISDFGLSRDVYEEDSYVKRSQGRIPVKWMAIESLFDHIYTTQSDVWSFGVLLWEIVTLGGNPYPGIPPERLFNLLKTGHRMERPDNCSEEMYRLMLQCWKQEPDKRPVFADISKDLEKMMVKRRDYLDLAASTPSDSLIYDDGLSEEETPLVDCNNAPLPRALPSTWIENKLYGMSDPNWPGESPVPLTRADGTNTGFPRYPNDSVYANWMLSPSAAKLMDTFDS
smiles,measurement,setting,value
"COc1cc2cc(-c3ccc(CC(=O)Nc4cc(C(C)(C)C(F)(F)F)no4)cn3)cnc2cc1OC [Example 4, 2-[6-(6,7-Dimethoxyquinolin-3-yl)pyridin-3-yl]-N-[3-(1,1,1-trifluoro-2-methylpropan-2-yl)-1,2-oxazol-5-yl]acetamide Methanesulfonate]",pIC50,"KDR kinase; KDR, HUVEC cells, VEGF165 50 ng/ml, compound 2 hours, read-out: IC50",6.53
same,IC50,"KDR kinase; cell system, Form: Mesylate, read-out: IC50 (nM) KDR",287 nM
same,pIC50,[1],7.31
same,pIC50,[2],8.22
same,tumor regression,[3]; 3 mg/kg or 1 mg/kg three times a day for 9 days (FIG. 1),dose-dependent tumor regression
same,reduction in body weight,"[3]; 3 mg/kg or 1 mg/kg three times a day for 9 days, compared to Vehicle group",no significant reduction in body weight
same,suppression of the phosphorylation of Y905 (pRET(Y905)),[4],dose-dependent suppression of the phosphorylation of Y905
